Molecular target: T1, human PAH with the R408W mutation (Homo sapiens, UniProt P00439, R408W)
T1 construct: expressed in transfected cells
T1 sequence (P00439 1-452 R408W): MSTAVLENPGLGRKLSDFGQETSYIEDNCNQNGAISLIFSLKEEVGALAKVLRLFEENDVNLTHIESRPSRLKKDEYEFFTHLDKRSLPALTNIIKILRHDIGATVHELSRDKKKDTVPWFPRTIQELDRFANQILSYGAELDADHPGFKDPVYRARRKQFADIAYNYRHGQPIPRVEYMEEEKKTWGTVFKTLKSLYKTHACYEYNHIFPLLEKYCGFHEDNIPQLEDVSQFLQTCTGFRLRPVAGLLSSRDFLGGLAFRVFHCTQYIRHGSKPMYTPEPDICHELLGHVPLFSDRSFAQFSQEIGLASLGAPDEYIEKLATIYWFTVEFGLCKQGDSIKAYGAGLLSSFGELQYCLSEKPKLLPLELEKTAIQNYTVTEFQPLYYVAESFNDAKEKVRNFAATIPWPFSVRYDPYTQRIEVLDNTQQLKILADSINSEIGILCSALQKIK
Assay: Cell Based Phenylalanine Flux Assay
Details: A375 cells expressing human R408W PAH; 24 hrs compound incubation; 13C-Tyrosine by LC-MS; average where tested multiple times; read-out: AC50

Row | Compound | AC50 [µM]
1 | O=C(c1nnc(-c2ccc(F)c(F)c2)o1)N1CCc2[nH]cnc2[C@@H]1c1nc2ccccc2s1 [Example 1802, (R)-(4-(benzo[d]thiazol-2-yl)-6,7-dihydro-1H-imidazo[4,5-c]pyridin-5(4H)-yl)(5-(3,4-difluorophenyl)-1,3,4-oxadiazol-2-yl)methanone] | 1 to 5
2 | O=C(c1oc(N2CCOCC2)nc1C(F)(F)F)N1CCc2[nH]cnc2[C@H]1c1nc2c(F)cccc2s1 [Example 1597, (S)-(4-(4-fluorobenzo[d]thiazol-2-yl)-6,7-dihydro-1H-imidazo[4,5-c]pyridin-5(4H)-yl)(2-morpholino-4-(trifluoromethyl)oxazol-5-yl)methanone] | < 0.5
3 | Cn1cc(-c2ccc3c(C(=O)N4CCc5[nH]cnc5[C@@H]4c4nc5ccccc5s4)cnn3c2)cn1 [Example 1214, (R)-(4-(benzo[d]thiazol-2-yl)-6,7-dihydro-1H-imidazo[4,5-c]pyridin-5(4H)-yl)(6-(1-methyl-1H-pyrazol-4-yl)pyrazolo[1,5-a]pyridin-3-yl)methanone] | 1 to 5
4 | N#Cc1ncoc1C(=O)N1CCc2[nH]cnc2[C@@H]1c1nc2c(F)cccc2s1 [Example 1662, (R)-5-(4-(4-fluorobenzo[d]thiazol-2-yl)-4,5,6,7-tetrahydro-1H-imidazo[4,5-c]pyridine-5-carbonyl)oxazole-4-carbonitrile] | 1 to 5
5 | O=C(c1sc(N2CCOCC2)nc1C(F)(F)F)N1CCc2[nH]cnc2[C@H]1c1nc2c(F)cccc2s1 [Example 1633, (S)-(4-(4-fluorobenzo[d]thiazol-2-yl)-6,7-dihydro-1H-imidazo[4,5-c]pyridin-5(4H)-yl)(2-morpholino-4-(trifluoromethyl)thiazol-5-yl)methanone] | < 0.5
6 | O=C(c1oc(N2CCOCC2)nc1C(F)(F)F)N1CCCc2[nH]cnc2[C@@H]1c1nc2ccccc2s1 [Example 2134, (R)-(4-(benzo[d]thiazol-2-yl)-7,8-dihydroimidazo[4,5-c]azepin-5(1H,4H,6H)-yl)(2-morpholino-4-(trifluoromethyl)oxazol-5-yl)methanone] | 1 to 5
7 | O=C(c1nnc(-c2cnn(S(=O)(=O)C3CC3)c2)o1)N1CCc2[nH]cnc2[C@@H]1c1nc2ccccc2s1 [Example 1940, (R)-(4-(benzo[d]thiazol-2-yl)-6,7-dihydro-1H-imidazo[4,5-c]pyridin-5(4H)-yl)(5-(1-(cyclopropylsulfonyl)-1H-pyrazol-4-yl)-1,3,4-oxadiazol-2-yl)methanone] | 1 to 5
8 | O=C(c1nnc(-c2cc[nH]n2)o1)N1CCc2[nH]cnc2[C@H]1c1nc2c(F)cccc2s1 [Example 1886] | 0.5 to 1
9 | O=C(c1ccno1)N1CCc2[nH]cnc2[C@@H]1c1nc2cc(F)ccc2s1 [Example 2154, (R)-(4-(5-fluorobenzo [d]thiazol-2-yl)-6,7-dihydro-1H-imidazo[4,5-c]pyridin-5(4H)-yl)(isoxazol-5-yl)methanone] | > 5
10 | Cn1cc(C(=O)N2CCc3[nH]cnc3[C@H]2c2nc3ccccc3s2)c(Cl)n1 [Example 1870] | < 0.5
11 | O=C(c1cnc(-c2ccc(C(F)(F)F)nc2)s1)N1CCc2[nH]cnc2[C@@H]1c1nc2ccccc2s1 [Example 1355, (R)-(4-(benzo[d]thiazol-2-yl)-6,7-dihydro-1H-imidazo[4,5-c]pyridin-5(4H)-yl)(2-(6-(trifluoromethyl)pyridin-3-yl)thiazol-5-yl)methanone] | 1 to 5
12 | N#Cc1nc(NC2CC2)oc1C(=O)N1CCc2[nH]cnc2[C@H]1c1nc2ccccc2s1 [Example 1699, (S)-5-(4-(benzo[d]thiazol-2-yl)-4,5,6,7-tetrahydro-1H-imidazo[4,5-c]pyridine-5-carbonyl)-2-(cyclopropylamino)oxazole-4-carbonitrile] | 1 to 5
13 | O=C(c1ocnc1C1CC1)N1CC2(CC2)c2[nH]cnc2[C@@H]1c1nc2ccccc2s1 [Example 1670, (R)-(4′-(benzo[d]thiazol-2-yl)spiro[cyclopropane-1,7′-imidazo[4,5-c]pyridin]-5′(1′H,4′H,6′H)-yl)(4-cyclopropyloxazol-5-yl)methanone] | 1 to 5
14 | O=C(c1cn[nH]c1C(F)F)N1CCc2[nH]cnc2[C@@H]1c1nc2ccccc2s1 [Example 1858, (R)-(4-(benzo[d]thiazol-2-yl)-6,7-dihydro-1H-imidazo[4,5-c]pyridin-5(4H)-yl)(5-(difluoromethyl)-1H-pyrazol-4-yl)methanone] | 1 to 5
15 | Nc1cc(C(=O)N2CCc3[nH]cnc3[C@H]2c2nc3ccccc3s2)n(C(F)F)n1 [Example 2051] | < 0.5
16 | CCc1ccc2c(C(=O)N3CCc4[nH]cnc4[C@H]3c3nc4ccccc4s3)cnn2c1 [Example 1243] | 1 to 5
17 | O=C(c1nnc(-c2cc(C(F)(F)F)ccn2)o1)N1CCc2[nH]cnc2[C@H]1c1nc2ccccc2s1 [Example 1889, [(4S)-4-(1,3-benzothiazol-2-yl)-1,4,6,7-tetrahydroimidazo[4,5-c]pyridin-5-yl]-[5-[4-(trifluoromethyl)-2-pyridyl]-1,3,4-oxadiazol-2-yl]methanone] | < 0.5
18 | O=C(c1cnn2ccccc12)N1CCc2nc[nH]c2[C@@H]1c1nc2c(F)cccc2s1 [Example 1112, (R)-(4-(4-fluorobenzo[d]thiazol-2-yl)-6,7-dihydro-3H-imidazo[4,5-c]pyridin-5(4H)-yl)(pyrazolo[1,5-a]pyridin-3-yl)methanone] | 1 to 5
19 | O=C(c1oc(COC(F)(F)F)nc1C(F)F)N1CCc2[nH]cnc2[C@H]1c1nc2ccccc2s1 [Example 1831] | < 0.5
20 | O=C(CCc1ncc(Cl)s1)N1CCc2[nH]cnc2[C@H]1c1nc2ccccc2s1 [Example 1025] | 1 to 5
21 | CC(C)(O)c1nc(Cl)c(C(=O)N2CCc3[nH]cnc3[C@@H]2c2nc3ccccc3s2)o1 [Example 1964, (R)-(4-(benzo[d]thiazol-2-yl)-6,7-dihydro-1H-imidazo[4,5-c]pyridin-5(4H)-yl)(4-chloro-2-(2-hydroxypropan-2-yl)oxazol-5-yl)methanone] | 1 to 5
22 | CC(C)(F)c1ncc(C(=O)N2CCc3[nH]cnc3[C@@H]2c2nc3c(F)cccc3s2)o1 [Example 1488, (R)-(4-(4-fluorobenzo[d]thiazol-2-yl)-6,7-dihydro-1H-imidazo[4,5-c]pyridin-5(4H)-yl)(2-(2-fluoropropan-2-yl)oxazol-5-yl)methanone] | 0.5 to 1
23 | Cn1ccc(-c2nnc(C(=O)N3CCc4[nH]cnc4[C@@H]3c3nc4ccccc4s3)o2)n1 [Example 1806, (R)-(4-(benzo[d]thiazol-2-yl)-6,7-dihydro-1H-imidazo[4,5-c]pyridin-5(4H)-yl)(5-(1-methyl-1H-pyrazol-3-yl)-1,3,4-oxadiazol-2-yl)methanone] | 1 to 5
24 | CC(C)(O)c1nc(C(F)F)c(C(=O)N2CCc3[nH]cnc3[C@@H]2c2nc3c(C(F)(F)F)cccc3s2)o1 [Example 2104, (R)-(4-(difluoromethyl)-2-(2-hydroxypropan-2-yl)oxazol-5-yl)(4-(4-(trifluoromethyl)benzo[d]thiazol-2-yl)-6,7-dihydro-1H-imidazo[4,5-c]pyridin-5(4H)-yl)methanone] | 0.5 to 1
25 | Cc1cccc2sc([C@H]3c4nc[nH]c4CCN3C(=O)c3ocnc3C#N)nc12 [Example 2020, (R)-5-(4-(4-methylbenzo[d]thiazol-2-yl)-4,5,6,7-tetrahydro-1H-imidazo[4,5-c]pyridine-5-carbonyl)oxazole-4-carbonitrile] | > 5
26 | O=C(CCc1nccs1)N1CCc2[nH]cnc2[C@H]1c1nc2cccc(F)c2s1 [Example 1035, (S)-1-(4-(7-fluorobenzo[d]thiazol-2-yl)-6,7-dihydro-1H-imidazo[4,5-c]pyridin-5(4H)-yl)-3-(thiazol-2-yl)propan-1-one] | 0.5 to 1
27 | O=C(c1ncco1)N1CCc2[nH]cnc2[C@@H]1c1nc2c(F)cccc2s1 [Example 1226, (R)-(4-(4-fluorobenzo[d]thiazol-2-yl)-6,7-dihydro-1H-imidazo[4,5-c]pyridin-5(4H)-yl)(oxazol-2-yl)methanone] | > 5
28 | O=C(Cc1nccs1)N1CCc2[nH]cnc2[C@H]1c1nc2ccccc2s1 [Example 1037] | 0.5 to 1
29 | CC(C)(O)c1ncc(C(=O)N2CCc3[nH]cnc3[C@H]2c2nc3ccccc3s2)s1 [Example 1435] | < 0.5

Same assay, conditions: A375 cells expressing human R408W PAH; 24 hrs with compound; 13C-Tyrosine by LC-MS; average where tested multiple times; read-out: AC50

Row | Compound | AC50 [µM]
30 | Cc1nc(C(=O)N2CCc3[nH]cnc3C2c2nc3ccccc3s2)n(C)n1 (stereo not drawn) | 1 to 5
31 | O=C(c1ccno1)N1CCc2nc[nH]c2C1c1nc2c(F)cccc2s1 (stereo not drawn) | 1 to 5
32 | Cc1nc(N2CCN(C)CC2)oc1C(=O)N1CCc2[nH]cnc2C1c1nc2c(F)cccc2s1 (stereo not drawn) | 1 to 5
33 | O=C(c1cnn2ccc(F)cc12)N1CCc2[nH]cnc2C1c1nc2ccc(Br)cc2[nH]1 (stereo not drawn) | 1 to 5
34 | O=C(CCc1cccs1)N1CCc2[nH]cnc2C1c1nc2ccccc2[nH]1 (stereo not drawn) | 1 to 5
35 | Cc1nnc(C(=O)N2CC(C)c3[nH]cnc3C2c2nc3ccccc3s2)o1 (stereo not drawn) | 1 to 5
36 | O=C(Cn1cncn1)N1CCc2[nH]cnc2C1c1nc2ccccc2s1 (stereo not drawn) | > 5
37 | O=C(c1n[nH]c2ccccc12)N1CCc2[nH]cnc2C1c1nc2cccc(F)c2s1 (stereo not drawn) | 1 to 5
38 | O=C(c1cnco1)N1CCc2[nH]cnc2C1c1nc2ccc(F)cc2s1 (stereo not drawn) | 1 to 5
39 | c1ccc2[nH]c(C3c4nc[nH]c4CCN3CCCc3nccs3)nc2c1 (stereo not drawn) | 1 to 5
